Assays:
Experiment in all cases: Post-emergence herbicidal glasshouse test
Type in all cases: in vivo
Conditions in all cases: post-emergence spray, evaluated after 13 days, five-point scale
[1] = system: Abutilon theophrasti (ABUTH)
Experimental: (§1) Seeds of a variety of test species are sown in standard soil in pots (Ipomoea hederacea (IPOHE), Abutilon theophrasti (ABUTH), Amaranthus retoflexus (AMARE), Echinochloa crus-galli (ECHCG), Setaria faberi (SETFA)). After 8 days cultivation under controlled conditions in a glasshouse (at 24/16° C., day/night; 14 hours light; 65% humidity), the plants are sprayed with an aqueous spray solution derived from the formulation of the technical active ingredient in acetone / water (50:50) solution containing 0.5% Tween 20 (polyoxyethelyene sorbitan monolaurate, CAS RN 9005-64-5). Compounds are applied at 1000 g/ha unless otherwise stated. The test plants are then grown in a glasshouse under controlled conditions in a glasshouse (at 24/16° C., day/night; 14 hours light; 65% humidity) and watered twice daily. After 13 days the test is evaluated for the percentage damage caused to the plant. The biological activities are shown in the following table on a five-point scale (5=81-100%; 4=61-80%; 3=41-60%; 2=21-40%; 1=0-20%).

[2] = system: Setaria faberi (SETFA)
Experimental: as §1

[3] = system: Ipomoea hederacea (IPOHE)
Experimental: as §1

[4] = system: Amaranthus retoflexus (AMARE)
Experimental: as §1

[5] = system: Echinochloa crus-galli (ECHCG)
Experimental: as §1

SMILES	percentage damage caused to the plant, ABUTH ([1]; 1000 g/ha)	percentage damage caused to the plant, SETFA ([2]; 1000 g/ha)	percentage damage caused to the plant, IPOHE ([3]; 1000 g/ha)	percentage damage caused to the plant, AMARE ([4]; 1000 g/ha)	percentage damage caused to the plant, ECHCG ([5]; 1000 g/ha)	percentage damage caused to the plant, ECHCG ([5]; applied at 500 gai/ha)	percentage damage caused to the plant, ABUTH ([1]; applied at 500 gai/ha)	percentage damage caused to the plant, SETFA ([2]; applied at 500 gai/ha)	percentage damage caused to the plant, IPOHE ([3]; applied at 500 gai/ha)	percentage damage caused to the plant, AMARE ([4]; applied at 500 gai/ha)
N#Cc1cc(Cl)c(O)c(-n2cc(C(F)(F)F)cn2)c1 [Compound 1.001, 3-chloro-4-hydroxy-5-[4-(trifluoromethyl)pyrazol-1-yl]benzonitrile]	5 (5=81-100%)	4 (4=61-80%)	1 (1=0-20%)	4 (4=61-80%)						
N#Cc1cc(OC(F)(F)F)c(O)c(-c2cccc(F)c2)c1 [Compound 1.002]	4 (4=61-80%)	2 (2=21-40%)	5 (5=81-100%)	5 (5=81-100%)	3 (3=41-60%)					
N#Cc1cc(Cl)c(O)c(-c2cccc(F)c2)c1 [Compound 1.004]	5 (5=81-100%)	3 (3=41-60%)	1 (1=0-20%)	5 (5=81-100%)	3 (3=41-60%)					
N#Cc1cc(-c2cccc(F)c2)c(O)c(C(F)(F)F)c1 [Compound 1.005]	5 (5=81-100%)	1 (1=0-20%)	5 (5=81-100%)	4 (4=61-80%)	4 (4=61-80%)					
Cn1nc(-c2cc(C#N)cc(Br)c2O)cc1C(F)(F)F [Compound 1.007, 3-bromo-4-hydroxy-5-[1-methyl-5-(trifluoromethyl)pyrazol-3-yl]benzonitrile]	2 (2=21-40%)	1 (1=0-20%)	3 (3=41-60%)	5 (5=81-100%)						
N#Cc1cc(Br)c(O)c(-c2ccc(C(F)(F)F)c(C(F)(F)F)c2)c1 [Compound 1.008]	2 (2=21-40%)	4 (4=61-80%)	2 (2=21-40%)	5 (5=81-100%)						
COc1cc(-c2cc(C#N)cc(Br)c2O)cc(C(F)(F)F)n1 [Compound 1.009]	2 (2=21-40%)	2 (2=21-40%)	2 (2=21-40%)	4 (4=61-80%)						
N#Cc1cc(Br)c(O)c(-c2cc(F)cc(C(F)(F)F)c2)c1 [Compound 1.027]	4 (4=61-80%)	4 (4=61-80%)	3 (3=41-60%)	5 (5=81-100%)						
N#Cc1cc(F)cc(-c2cc(C#N)cc(Br)c2O)c1 [Compound 1.032]	4 (4=61-80%)	4 (4=61-80%)	3 (3=41-60%)	5 (5=81-100%)						
N#Cc1cc(Br)c(O)c(-c2cc(F)cc(Cl)c2)c1 [Compound 1.034]	4 (4=61-80%)			4 (4=61-80%)						
N#Cc1cc(Br)c(O)c(-c2cnc3c(c2)OC(F)(F)O3)c1 [Compound 1.036]	2 (2=21-40%)	4 (4=61-80%)	3 (3=41-60%)	5 (5=81-100%)	3 (3=41-60%)					
N#Cc1cc(Br)c(O)c(-c2cncnc2)c1 [Compound 1.044]	5 (5=81-100%)	3 (3=41-60%)	1 (1=0-20%)	5 (5=81-100%)	2 (2=21-40%)					
N#Cc1cc(Br)c(O)c(-c2cccc(Cl)c2F)c1 [Compound 1.045]	3 (3=41-60%)	1 (1=0-20%)	1 (1=0-20%)	5 (5=81-100%)	1 (1=0-20%)					
N#Cc1cc(Br)c(O)c(-c2cccc(F)c2)c1 [Compound 1.046, 3-bromo-5-(3-fluorophenyl)-4-hydroxy-benzonitrile]	5 (5=81-100%)	3 (3=41-60%)	3 (3=41-60%)	5 (5=81-100%)	2 (2=21-40%)					
N#Cc1cc(Br)c(O)c(-c2ccccc2)c1 [Compound 1.047]	5 (5=81-100%)	2 (2=21-40%)	3 (3=41-60%)	5 (5=81-100%)	1 (1=0-20%)					
N#Cc1cc(Br)c(O)c(-c2ccc(F)cc2)c1 [Compound 1.048]	5 (5=81-100%)	2 (2=21-40%)	2 (2=21-40%)	5 (5=81-100%)	2 (2=21-40%)					
N#Cc1cc(Br)c(O)c(-c2cncc(F)c2)c1 [Compound 1.052]	5 (5=81-100%)	3 (3=41-60%)	1 (1=0-20%)	5 (5=81-100%)	1 (1=0-20%)					
N#Cc1cccc(-c2cc(C#N)cc(Br)c2O)c1 [Compound 1.053]	2 (2=21-40%)	1 (1=0-20%)	3 (3=41-60%)	5 (5=81-100%)	1 (1=0-20%)					
N#Cc1cc(Br)c(O)c(-c2cccc(Cl)c2)c1 [Compound 1.054]	5 (5=81-100%)	2 (2=21-40%)	2 (2=21-40%)	5 (5=81-100%)	3 (3=41-60%)					
N#Cc1cc(Br)c(O)c(-c2ccc(C(F)(F)F)cc2)c1 [Compound 1.058]	1 (1=0-20%)	3 (3=41-60%)	2 (2=21-40%)	5 (5=81-100%)	2 (2=21-40%)					
N#Cc1cc(Br)c(O)c(-c2cccc(C(F)(F)F)c2)c1 [Compound 1.060]	4 (4=61-80%)	1 (1=0-20%)	2 (2=21-40%)	5 (5=81-100%)	1 (1=0-20%)					
N#Cc1cc(Br)c(O)c(-c2cccc(Br)c2)c1 [Compound 1.061]	3 (3=41-60%)	1 (1=0-20%)	3 (3=41-60%)	5 (5=81-100%)	1 (1=0-20%)					
N#Cc1cncc(-c2cc(C#N)cc(Br)c2O)c1 [Compound 1.067]	3 (3=41-60%)	2 (2=21-40%)	2 (2=21-40%)	1 (1=0-20%)	2 (2=21-40%)					
N#Cc1cc(Br)c(O)c(-c2ccc(F)c(F)c2)c1 [Compound 1.130]	5 (5=81-100%)	1 (1=0-20%)	2 (2=21-40%)	5 (5=81-100%)	1 (1=0-20%)					
N#Cc1cc(Br)c(O)c(-c2cccs2)c1 [Compound 1.134]	4 (4=61-80%)	1 (1=0-20%)	4 (4=61-80%)	4 (4=61-80%)	1 (1=0-20%)					
N#Cc1cc(Br)c(O)c(-c2ccsc2)c1 [Compound 1.135]	5 (5=81-100%)	1 (1=0-20%)	5 (5=81-100%)	2 (2=21-40%)	1 (1=0-20%)					
N#Cc1cccc(-c2cc(C#N)cc(C(F)(F)F)c2O)c1 [Compound 1.145]						1 (1=0-20%)	1 (1=0-20%)	1 (1=0-20%)	3 (3=41-60%)	1 (1=0-20%)
N#Cc1cc(-c2csc(C(F)(F)F)n2)c(O)c(C(F)(F)F)c1 [Compound 1.225]				5 (5=81-100%)						
